For 2 compounds, fold induction results are on record in patent US20040266849A1, “Therapeutic compounds for treating dyslipidemic conditions” (priority 2004, published 2004).

The subject of the assay is ABCA1 mRNA. Description: Induction of ABCA1 mRNA levels in human primary macrophages. Format: cell-based. To be noted: Primary macrophage, 18 h + 6 h, vs DMSO control, read-out: Fold Induction of ABCA1 mRNA (Mean ± SEM). On the procedure: Induction of ABCA1 mRNA levels
Human Primary Macrophages were used to test the ability of LXR ligands to induce the expression of ABCA1 mRNA. The collection and purification of monocytes and their subsequent differentiation into macrophages by culturing in Teflon jars for 7-9 days was performed according to Wright and Silverstein J. Exp. Med. V156, October 1982 pp. 1149-1164. Cells were harvested from the Teflon jars and seeded into appropriate vessels in RPMI1640 plus 12% human serum and antibiotics. Cells were allowed to recover overnight before treatment. Treatment was for 18 hours with the described compounds, followed by a re-application of fresh compounds for an additional 6 hours in DMEM minus Phenol Red with 10% charcoal stripped FCS. The cells were harvested and total RNA prepared using the phenol/guanidine isothiocyanate method as supplied and described by Molecular Research Center, Inc. (TRI REAGENT® Cat. No. TR 118). ABCA1 mRNA levels in the total RNA were measured using the TaqMan® mRNA quantitation system, following protocols published by the manufacturer (Perkin-Elmer). The oligonucleotide PCR primers used to detect ABCA1 were: […]
The oligonucleotide probe used was:
ABCA1 mRNA levels in each sample were normalized to the mRNA levels for the 23 kDa highly basic protein. The oligonucleotide PCR primers used to detect the 23 kDa highly basic protein were: […]

With `CC(C)CC[C@@H](O)[C@@H](C)[C@H]1CC[C@H]2[C@@H]3CC=C4C[C@@H](O)CC[C@]4(C)[C@H]3CC[C@]12C` [22-(R)-hydroxycholesterol, reference compound], the fold induction at 10 µM stood at 8 ± 1.37.
On to `CCCc1c(OCCCN(C)C(=O)CC(C)(C)CC(=O)O)ccc2c(C(F)(F)F)noc12` [Compound (3d)], for which the fold induction at 10 µM came out at 13.6 ± 1.1. The fold induction at 0.1 µM (0.1 μM) worked out at 0.9 ± 0.2. For the setting “1.0 μM”, the fold induction at 1 µM amounted to 3.3 ± 0.3.
